IC50 data for 22 compounds are collected here from patent US11040035B2, “3-oxo-2,6-diphenyl-2,3-dihydropyridazine-4-carboxamides” (BAYER PHARMA AKTIENGESELLSCHAFT, priority 2016, dated 2021).

The structures appear in SMILES notation.

The target in assay [1] is T1, AHR (Homo sapiens, UniProt P35869).
T1 sequence (P35869 11-848): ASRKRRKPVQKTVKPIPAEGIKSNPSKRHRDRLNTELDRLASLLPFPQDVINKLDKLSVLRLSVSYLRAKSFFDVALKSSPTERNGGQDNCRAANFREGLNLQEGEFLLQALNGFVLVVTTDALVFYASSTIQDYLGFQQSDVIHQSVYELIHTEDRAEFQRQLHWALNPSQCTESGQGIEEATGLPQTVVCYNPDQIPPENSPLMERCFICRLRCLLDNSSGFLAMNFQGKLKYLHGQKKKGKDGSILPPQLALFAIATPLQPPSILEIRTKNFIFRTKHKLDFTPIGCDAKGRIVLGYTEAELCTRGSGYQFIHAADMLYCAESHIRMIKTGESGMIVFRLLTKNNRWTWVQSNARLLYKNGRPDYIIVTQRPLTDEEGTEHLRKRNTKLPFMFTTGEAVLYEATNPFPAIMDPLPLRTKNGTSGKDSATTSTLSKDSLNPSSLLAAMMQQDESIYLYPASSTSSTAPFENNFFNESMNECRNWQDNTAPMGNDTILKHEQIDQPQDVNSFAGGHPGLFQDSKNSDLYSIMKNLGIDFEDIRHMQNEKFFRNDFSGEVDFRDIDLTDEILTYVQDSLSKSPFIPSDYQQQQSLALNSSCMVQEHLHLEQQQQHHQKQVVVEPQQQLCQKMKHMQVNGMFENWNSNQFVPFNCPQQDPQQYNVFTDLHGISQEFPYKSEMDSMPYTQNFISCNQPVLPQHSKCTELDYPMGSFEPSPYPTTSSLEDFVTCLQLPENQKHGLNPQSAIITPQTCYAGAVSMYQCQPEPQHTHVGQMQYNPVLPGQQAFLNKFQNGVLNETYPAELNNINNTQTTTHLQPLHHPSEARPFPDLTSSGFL
The assay is described as follows: In vitro assay 2: agonism in human cell line (transactivation assay).

Assay [2] concerns the target T1, AHR. The assay is described as follows: In vitro assay 1: antagonism in human cell line (transactivation assay, kynurenic acid prestimulated). The settings on record: Assay 1: AHR-luc Hum Antagonism IC50 [M], 150 μM kynurenic acid, 20 hours, firefly luciferase.
Setting [3] is: Assay 2: AHR-luc Hum Agonism IC50 [M], no kynurenic acid, 20 hours, firefly luciferase.
[4] abbreviates: read-out: Assay 2: AHR-luc Hum Agonism IC50, no kynurenic acid, 20 hours, firefly luciferase.

The IC50 is the concentration at which inhibition is half-maximal.

Consider `O=C(NC(CO)Cc1cccnc1)c1cc(-c2ccc(Cl)cc2)nn(-c2cccc(F)c2)c1=O` (racemic) [Example 338, 6-(4-chlorophenyl)-2-(3-fluorophenyl)-N-[(2RS)-1-hydroxy-3-(pyridin-3-yl)propan-2-yl]-3-oxo-2,3-dihydropyridazine-4-carboxamide], for which the IC50 on AHR [1] (setting [3]) was greater than 2e-05 M; against AHR [2] it was 7.32e-08 M.
As to `O=C(NC(CCO)C(F)(F)F)c1cc(-c2ccc(Cl)cc2)nn(-c2cccc(F)c2)c1=O` (single isomer, unassigned; (+)) [Example 343, (+)-6-(4-chlorophenyl)-2-(3-fluorophenyl)-3-oxo-N-(1,1,1-trifluoro-4-hydroxybutan-2-yl)-2,3-dihydropyridazine-4-carboxamide], the IC50 at AHR [1] (setting [4]) was greater than 2e-05 M; against AHR [2] it was 1.49e-08 M.
`C[C@@H](CO)NC(=O)c1cc(-c2ccc(Cl)c(F)c2)nn(-c2cccc(F)c2)c1=O` [Example 286, 6-(4-Chloro-3-fluorophenyl)-2-(3-fluorophenyl)-N-[(2S)-1-hydroxypropan-2-yl]-3-oxo-2,3-dihydropyridazine-4-carboxamide]: the IC50 is greater than 2e-05 M against AHR [1] (setting [3]) and 2.77e-07 M at AHR [2].
In the same order, the values of `COc1ccc(-c2cc(C(=O)N[C@@H]3CCC[C@@H]3O)c(=O)n(-c3cccc(F)c3)n2)cc1` [Example 139, 2-(3-Fluorophenyl)-N-[(1R,2S)-2-hydroxycyclopentyl]-6-(4-methoxyphenyl)-3-oxo-2,3-dihydropyridazine-4-carboxamide] are greater than 2e-05 M and 6.97e-08 M.
In the same order, the values of `O=C(NCC(O)C(F)(F)F)c1cc(-c2ccc(C(F)(F)F)cc2)nn(-c2cccc(F)c2)c1=O` (racemic) [Example 242, 2-(3-Fluorophenyl)-3-oxo-N-[(2RS)-3,3,3-trifluoro-2-hydroxypropyl]-6-[4-(trifluoromethyl)phenyl]-2,3-dihydropyridazine-4-carboxamide] are 1.18e-05 M and greater than 2e-05 M.
As to `CC(C)[C@@H](CO)NC(=O)c1cc(-c2ccc(C(F)F)cc2)nn(-c2cccc(F)c2)c1=O` [Example 91, 6-[4-(Difluoromethyl)phenyl]-2-(3-fluorophenyl)-N-[(2S)-1-hydroxy-3-methylbutan-2-yl]-3-oxo-2,3-dihydropyridazine-4-carboxamide], the 50% inhibitory concentration (IC50) against AHR [1] (setting [3]) was greater than 2e-05 M; at AHR [2] it was 4.44e-09 M.
For the compound `CC(O)C(C)NC(=O)c1cc(-c2ccc(OC(F)F)cc2)nn(-c2cccc(F)c2)c1=O` (single isomer, unassigned) [Example 142, 6-[4-(Difluoromethoxy)phenyl]-2-(3-fluorophenyl)-N-(3-hydroxybutan-2-yl)-3-oxo-2,3-dihydropyridazine-4-carboxamide], the figures for the half-inhibitory concentration (IC50) on AHR [1] (setting [4]) and against AHR [2] were greater than 2e-05 M and 9.15e-07 M, respectively.
On to `COCCC(CO)NC(=O)c1cc(-c2ccc(C(F)(F)F)cc2)nn(-c2cccc(F)c2)c1=O` (single isomer, unassigned; (-)) [Example 313, (−)-2-(3-fluorophenyl)-N-(1-hydroxy-4-methoxybutan-2-yl)-3-oxo-6-[4-(trifluoromethyl)-phenyl]-2,3-dihydropyridazine-4-carboxamide], for which the concentration for half-maximal inhibition (IC50) at AHR [1] (setting [3]) is greater than 2e-05 M; on AHR [2] it was 1.67e-08 M.
As for `O=C(NC(CO)C1CCCO1)c1cc(-c2ccc(Cl)cc2)nn(-c2cccc(F)c2)c1=O` (racemic) [Example 230, 3,6-Anhydro-2-({[6-(4-chlorophenyl)-2-(3-fluorophenyl)-3-oxo-2,3-dihydropyridazin-4-yl]carbonyl}amino)-2,4,5-trideoxy-DL-erythro-hexitol and 1,4-anhydro-5-({[6-(4-chlorophenyl)-2-(3-fluorophenyl)-3-oxo-2,3-dihydropyridazin-4-yl]carbonyl}amino)-2,3,5-trideoxy-DL-threo-hexitol], the IC50 was greater than 2e-05 M against AHR [1] (setting [3]) and 1.37e-07 M against AHR [2].
In the same order, the values of `CC(C)C(O)CNC(=O)c1cc(-c2ccc(Cl)cc2)nn(-c2cc(F)cc(F)c2)c1=O` (centres unmarked) [Example 48, 6-(4-Chlorophenyl)-2-(3,5-difluorophenyl)-N-(2-hydroxy-3-methylbutyl)-3-oxo-2,3-dihydropyridazine-4-carboxamide] are greater than 2e-05 M and 4.93e-08 M.
As for `O=C(NC1(CO)CCCC1)c1cc(-c2ccc(Cl)cc2)nn(-c2cccc(F)c2)c1=O` [Example 214, 6-(4-Chlorophenyl)-2-(3-fluorophenyl)-N-[1-(hydroxymethyl)cyclopentyl]-3-oxo-2,3-dihydropyridazine-4-carboxamide], the IC50 is greater than 2e-05 M against AHR [1] (setting [3]) and 8.32e-08 M at AHR [2].
Turning to `C[C@H](O)[C@H](C)NC(=O)c1cc(-c2ccc(Cl)c(Cl)c2)nn(-c2cccc(F)c2)c1=O` (relative stereo) [Example 305, rel-6-(3,4-Dichlorophenyl)-2-(3-fluorophenyl)-N-[(2S,3S)-3-hydroxybutan-2-yl]-3-oxo-2,3-dihydropyridazine-4-carboxamide], the IC50 at AHR [1] (setting [3]) was greater than 2e-05 M; at AHR [2], 1.21e-07 M.
Take `O=C(N[C@@H]1CC[C@@H]1O)c1cc(-c2ccc(Cl)cc2)nn(-c2cccc(F)c2)c1=O` (racemic) [Example 356, 6-(4-chlorophenyl)-2-(3-fluorophenyl)-N-(cis-2-hydroxycyclobutyl)-3-oxo-2,3-dihydropyridazine-4-carboxamide]: the figures for the IC50 at AHR [1] (setting [3]) and at AHR [2] were greater than 2e-05 M and 4.18e-08 M, respectively.
As to `COc1ccc(-c2cc(C(=O)NC(C)C(C)O)c(=O)n(-c3cccc(F)c3)n2)cc1` (centres unmarked) [Example 138, 2-(3-Fluorophenyl)-N-(3-hydroxybutan-2-yl)-6-(4-methoxyphenyl)-3-oxo-2,3-dihydropyridazine-4-carboxamide], the concentration for half-maximal inhibition (IC50) against AHR [1] (setting [3]) is greater than 2e-05 M; against AHR [2] it was 5.02e-08 M.
In the same order, the values of `COc1ccc(-c2cc(C(=O)NCC(O)C(F)(F)F)c(=O)n(-c3cccc(F)c3)n2)cc1` (centres unmarked) [Example 126, 2-(3-Fluorophenyl)-6-(4-methoxyphenyl)-3-oxo-N-(3,3,3-trifluoro-2-hydroxypropyl)-2,3-dihydropyridazine-4-carboxamide] are greater than 2e-05 M and 5.13e-08 M.
As to `O=C(N[C@@H](CO)Cc1cnc[nH]1)c1cc(-c2ccc(Cl)cc2)nn(-c2cccc(F)c2)c1=O` [Example 161, 6-(4-Chlorophenyl)-2-(3-fluorophenyl)-N-[(2R)-1-hydroxy-3-(1H-imidazol-5-yl)propan-2-yl]-3-oxo-2,3-dihydropyridazine-4-carboxamide], the values for the concentration for half-maximal inhibition (IC50) on AHR [1] (setting [3]) and at AHR [2] were greater than 2e-05 M and 3.15e-07 M, respectively.
Turning to `Cc1ccc(-c2cc(C(=O)NC(CO)C3CC3)c(=O)n(-c3cccc(F)c3)n2)cc1` (racemic) [Example 236, N-[(1RS)-1-Cyclopropyl-2-hydroxyethyl]-2-(3-fluorophenyl)-6-(4-methylphenyl)-3-oxo-2,3-dihydropyridazine-4-carboxamide], the half-inhibitory concentration (IC50) against AHR [1] (setting [3]) is greater than 2e-05 M; against AHR [2], 8.23e-08 M.
As to `COc1ccc(-c2cc(C(=O)N[C@@H]3CCC[C@H]3O)c(=O)n(-c3cccc(F)c3)n2)cc1` (relative stereo) [Example 154, 2-(3-Fluorophenyl)-N-(trans-2-hydroxycyclopentyl)-6-(4-methoxyphenyl)-3-oxo-2,3-dihydropyridazine-4-carboxamide], the half-maximal inhibitory concentration (IC50) at AHR [1] (setting [3]) was greater than 2e-05 M; on AHR [2], 1.69e-07 M.
Consider `O=C(N[C@@H]1CCCC[C@@H]1O)c1cc(-c2ccc(OC(F)F)cc2)nn(-c2cccc(F)c2)c1=O` (relative stereo) [Example 130, 6-[4-(Difluoromethoxy)phenyl]-2-(3-fluorophenyl)-N-(cis-2-hydroxycyclohexyl)-3-oxo-2,3-dihydropyridazine-4-carboxamide], for which the half-maximal inhibitory concentration (IC50) was greater than 2e-05 M at AHR [1] (setting [3]) and 4.37e-08 M against AHR [2].
In the case of `O=C(NCC(O)C(F)(F)F)c1cc(-c2ccc(C(F)F)cc2)nn(-c2cccc(F)c2)c1=O` (centres unmarked) [Example 94, 6-[4-(Difluoromethyl)phenyl]-2-(3-fluorophenyl)-3-oxo-N-(3,3,3-trifluoro-2-hydroxypropyl)-2,3-dihydropyridazine-4-carboxamide], the IC50 on AHR [1] (setting [3]) is greater than 2e-05 M; against AHR [2], 1.54e-08 M.
As to `C[C@@H](CO)NC(=O)c1cc(-c2ccc(N(C)C)c(Cl)c2)nn(-c2cccc(F)c2)c1=O` [Example 377, 6-[3-chloro-4-(dimethylamino)phenyl]-2-(3-fluorophenyl)-N-[(2S)-1-hydroxypropan-2-yl]-3-oxo-2,3-dihydropyridazine-4-carboxamide], the IC50 at AHR [1] (setting [3]) was greater than 2e-05 M; on AHR [2] it was 1.36e-07 M.
In the case of `O=C(NC(CO)C1CCOC1)c1cc(-c2ccc(Cl)cc2)nn(-c2cccc(F)c2)c1=O` (single isomer, unassigned) [Example 39], the IC50 against AHR [1] (setting [3]) is greater than 2e-05 M; at AHR [2] it was 2.76e-08 M.
